# What was measured:
# Assay in all cases: Kinobeads competition binding profiling, two doses (100 nM and 1 µM);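 also: inhibitor preincubated 45 min at 4 °C in cell lysate, then bead pulldown. Bound protein quantified by label-free mass spectrometry relative to DMSO vehicle control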
# [1] = target: T1, endogenous kinases and other proteins enriched by Kinobeads from mixed lysates of K-562, COLO-205, MV-4-11, SK-N-BE(2) and OVCAR-8 (Homo sapiens, UniProt Q15569); conditions: read-out: Lestaurtinib Drugmatrix value, Gene Name TESK1; target TESK1; one Lestaurtinib control experiment/replicate (R1-R3)
# T1 construct: endogenous in cells
# [2] = target: T2, endogenous kinases and other proteins enriched by Kinobeads from mixed lysates of K-562, COLO-205, MV-4-11, SK-N-BE(2) and OVCAR-8 (Homo sapiens, UniProt Q8WZ42); conditions: read-out: Lestaurtinib Drugmatrix value, Gene Name TTN; target TTN; one Lestaurtinib control experiment/replicate (R1-R3)
# T2 construct: endogenous in cells
# [3] = system: endogenous kinases and other proteins enriched by Kinobeads from mixed lysates of K-562, COLO-205, MV-4-11, SK-N-BE(2) and OVCAR-8; set-up: species or system human
# [4] = target: T3, endogenous kinases and other proteins enriched by Kinobeads from mixed lysates of K-562, COLO-205, MV-4-11, SK-N-BE(2) and OVCAR-8 (Homo sapiens, UniProt P42680); conditions: read-out: Lestaurtinib Drugmatrix value, Gene Name TEC; target TEC; one Lestaurtinib control experiment/replicate (R1-R3)
# T3 construct: to maximize the representation of endogenous proteins; endogenous in cells
# [5] = target: T4, endogenous kinases and other proteins enriched by Kinobeads from mixed lysates of K-562, COLO-205, MV-4-11, SK-N-BE(2) and OVCAR-8 (Homo sapiens, UniProt O43353); conditions: read-out: Lestaurtinib Drugmatrix value, Gene Name RIPK2; target RIPK2; one Lestaurtinib control experiment/replicate (R1-R3)
# T4 construct: to maximize the representation of endogenous proteins; endogenous in cells
# [6] = target: T5, endogenous kinases and other proteins enriched by Kinobeads from mixed lysates of K-562, COLO-205, MV-4-11, SK-N-BE(2) and OVCAR-8 (Homo sapiens, UniProt P51955); conditions: NEK2
# T5 construct: endogenous in cells
# [7] = target: T6, endogenous kinases and other proteins enriched by Kinobeads from mixed lysates of K-562, COLO-205, MV-4-11, SK-N-BE(2) and OVCAR-8 (Homo sapiens, UniProt P22694); conditions: PKAC-beta
# T6 construct: endogenous in cells
# [8] = target: T7, endogenous kinases and other proteins enriched by Kinobeads from mixed lysates of K-562, COLO-205, MV-4-11, SK-N-BE(2) and OVCAR-8 (Homo sapiens, UniProt Q16584); conditions: MLK3
# T7 construct: endogenous in cells
# T7 sequence (Q16584 whole entry): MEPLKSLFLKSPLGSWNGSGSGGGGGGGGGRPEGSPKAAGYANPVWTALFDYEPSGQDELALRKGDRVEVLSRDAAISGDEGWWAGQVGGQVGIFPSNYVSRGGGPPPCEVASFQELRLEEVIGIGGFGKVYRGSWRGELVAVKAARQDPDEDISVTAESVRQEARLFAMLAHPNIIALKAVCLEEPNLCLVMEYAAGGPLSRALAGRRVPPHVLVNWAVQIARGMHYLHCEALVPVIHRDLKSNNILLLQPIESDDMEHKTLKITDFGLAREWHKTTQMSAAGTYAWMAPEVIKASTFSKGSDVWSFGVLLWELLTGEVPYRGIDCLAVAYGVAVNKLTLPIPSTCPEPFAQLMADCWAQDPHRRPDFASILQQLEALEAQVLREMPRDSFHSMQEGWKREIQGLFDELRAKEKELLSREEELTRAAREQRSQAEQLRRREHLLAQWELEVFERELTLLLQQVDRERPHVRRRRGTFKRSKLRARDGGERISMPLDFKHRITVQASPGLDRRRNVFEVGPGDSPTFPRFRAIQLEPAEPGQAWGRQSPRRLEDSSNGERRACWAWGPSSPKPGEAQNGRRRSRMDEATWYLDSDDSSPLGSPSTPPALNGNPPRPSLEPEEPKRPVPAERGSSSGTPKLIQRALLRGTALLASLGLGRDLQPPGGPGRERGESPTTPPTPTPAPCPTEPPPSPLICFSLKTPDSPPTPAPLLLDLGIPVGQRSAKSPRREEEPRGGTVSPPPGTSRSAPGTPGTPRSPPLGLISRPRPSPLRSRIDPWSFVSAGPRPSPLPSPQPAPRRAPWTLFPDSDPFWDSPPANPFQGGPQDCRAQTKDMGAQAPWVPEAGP
# [9] = target: T8, endogenous kinases and other proteins enriched by Kinobeads from mixed lysates of K-562, COLO-205, MV-4-11, SK-N-BE(2) and OVCAR-8 (Homo sapiens, UniProt Q16832); conditions: DDR2
# T8 construct: endogenous in cells
# [10] = target: T9, endogenous kinases and other proteins enriched by Kinobeads from mixed lysates of K-562, COLO-205, MV-4-11, SK-N-BE(2) and OVCAR-8 (Homo sapiens, UniProt Q9HC98); conditions: NEK6
# T9 construct: endogenous in cells
# [11] = target: T10, endogenous kinases and other proteins enriched by Kinobeads from mixed lysates of K-562, COLO-205, MV-4-11, SK-N-BE(2) and OVCAR-8 (Homo sapiens, UniProt O14578); conditions: CIT
# T10 construct: to maximize the representation of endogenous proteins; endogenous in cells
# T10 sequence (O14578 whole entry): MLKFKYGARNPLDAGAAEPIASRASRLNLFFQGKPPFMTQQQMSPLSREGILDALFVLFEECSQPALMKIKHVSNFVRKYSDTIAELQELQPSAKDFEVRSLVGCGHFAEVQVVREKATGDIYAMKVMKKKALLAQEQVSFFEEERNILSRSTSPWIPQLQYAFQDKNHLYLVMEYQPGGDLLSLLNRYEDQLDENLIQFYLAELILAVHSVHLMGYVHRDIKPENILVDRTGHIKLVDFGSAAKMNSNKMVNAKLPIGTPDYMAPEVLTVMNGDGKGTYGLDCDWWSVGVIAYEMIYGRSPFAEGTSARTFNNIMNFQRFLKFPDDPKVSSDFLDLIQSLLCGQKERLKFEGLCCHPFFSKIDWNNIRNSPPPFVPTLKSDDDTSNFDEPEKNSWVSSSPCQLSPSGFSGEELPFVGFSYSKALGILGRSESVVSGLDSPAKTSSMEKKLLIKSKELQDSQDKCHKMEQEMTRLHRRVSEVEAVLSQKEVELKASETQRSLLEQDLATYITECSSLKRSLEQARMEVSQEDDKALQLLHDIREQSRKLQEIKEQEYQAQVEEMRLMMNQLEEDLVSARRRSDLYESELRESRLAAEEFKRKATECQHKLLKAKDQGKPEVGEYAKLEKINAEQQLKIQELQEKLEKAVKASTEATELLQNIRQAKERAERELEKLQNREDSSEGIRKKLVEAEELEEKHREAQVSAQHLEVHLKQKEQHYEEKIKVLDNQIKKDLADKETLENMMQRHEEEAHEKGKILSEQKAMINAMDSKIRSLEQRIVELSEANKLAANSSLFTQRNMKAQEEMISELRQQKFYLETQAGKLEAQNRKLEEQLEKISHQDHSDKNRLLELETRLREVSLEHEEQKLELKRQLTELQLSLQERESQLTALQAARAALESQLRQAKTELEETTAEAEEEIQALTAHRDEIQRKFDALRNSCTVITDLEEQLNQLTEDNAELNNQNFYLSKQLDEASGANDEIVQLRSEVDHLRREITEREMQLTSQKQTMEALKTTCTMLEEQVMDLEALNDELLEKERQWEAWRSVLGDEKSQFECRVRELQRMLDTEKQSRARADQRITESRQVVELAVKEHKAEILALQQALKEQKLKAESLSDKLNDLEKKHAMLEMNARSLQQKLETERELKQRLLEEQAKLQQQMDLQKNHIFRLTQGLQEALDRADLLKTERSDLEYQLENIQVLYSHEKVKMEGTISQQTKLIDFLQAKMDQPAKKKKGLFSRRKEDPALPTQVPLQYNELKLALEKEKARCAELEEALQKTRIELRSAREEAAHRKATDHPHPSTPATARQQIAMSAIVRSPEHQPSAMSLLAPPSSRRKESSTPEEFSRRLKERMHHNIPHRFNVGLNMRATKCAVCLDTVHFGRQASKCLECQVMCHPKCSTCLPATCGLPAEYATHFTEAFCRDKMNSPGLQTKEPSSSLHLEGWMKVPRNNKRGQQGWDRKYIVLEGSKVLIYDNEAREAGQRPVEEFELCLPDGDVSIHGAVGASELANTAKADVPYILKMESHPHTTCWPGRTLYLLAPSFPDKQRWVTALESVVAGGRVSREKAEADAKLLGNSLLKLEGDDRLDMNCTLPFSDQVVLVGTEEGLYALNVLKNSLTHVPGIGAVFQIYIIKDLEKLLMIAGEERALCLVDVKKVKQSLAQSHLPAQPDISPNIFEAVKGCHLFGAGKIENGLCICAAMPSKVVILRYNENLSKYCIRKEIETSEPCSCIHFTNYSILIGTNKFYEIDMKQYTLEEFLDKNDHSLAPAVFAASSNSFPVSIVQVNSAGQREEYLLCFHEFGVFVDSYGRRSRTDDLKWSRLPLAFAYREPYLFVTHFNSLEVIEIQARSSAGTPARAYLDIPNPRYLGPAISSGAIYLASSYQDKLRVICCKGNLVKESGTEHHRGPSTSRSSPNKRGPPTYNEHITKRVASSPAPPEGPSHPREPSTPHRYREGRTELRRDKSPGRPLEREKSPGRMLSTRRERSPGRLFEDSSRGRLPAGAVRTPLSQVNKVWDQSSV
# [12] = target: T11, endogenous kinases and other proteins enriched by Kinobeads from mixed lysates of K-562, COLO-205, MV-4-11, SK-N-BE(2) and OVCAR-8 (Homo sapiens, UniProt Q15418); conditions: RSK1(Kin.Dom.1-N-terminal)
# T11 construct: endogenous in cells
# [13] = target: T12, endogenous kinases and other proteins enriched by Kinobeads from mixed lysates of K-562, COLO-205, MV-4-11, SK-N-BE(2) and OVCAR-8 (Homo sapiens, UniProt O60674); conditions: JAK2(JH1domain-catalytic)
# T12 construct: endogenous in cells
# [14] = target: T13, endogenous kinases and other proteins enriched by Kinobeads from mixed lysates of K-562, COLO-205, MV-4-11, SK-N-BE(2) and OVCAR-8 (Homo sapiens, UniProt Q13131); conditions: AMPK-alpha1
# T13 construct: endogenous in cells
# [15] = target: T14, endogenous kinases and other proteins enriched by Kinobeads from mixed lysates of K-562, COLO-205, MV-4-11, SK-N-BE(2) and OVCAR-8 (Homo sapiens, UniProt P51956); conditions: NEK3
# T14 construct: endogenous in cells
# [16] = target: T15, endogenous kinases and other proteins enriched by Kinobeads from mixed lysates of K-562, COLO-205, MV-4-11, SK-N-BE(2) and OVCAR-8 (Homo sapiens, UniProt P49759); conditions: CLK1
# T15 construct: endogenous in cells
# [17] = target: T16, endogenous kinases and other proteins enriched by Kinobeads from mixed lysates of K-562, COLO-205, MV-4-11, SK-N-BE(2) and OVCAR-8 (Homo sapiens, UniProt P29597); conditions: TYK2(JH2domain-pseudokinase)
# T16 construct: endogenous in cells
# [18] = target: T17, endogenous kinases and other proteins enriched by Kinobeads from mixed lysates of K-562, COLO-205, MV-4-11, SK-N-BE(2) and OVCAR-8 (Homo sapiens, UniProt Q9Y463); conditions: DYRK1B
# T17 construct: endogenous in cells
# T17 sequence (Q9Y463 whole entry): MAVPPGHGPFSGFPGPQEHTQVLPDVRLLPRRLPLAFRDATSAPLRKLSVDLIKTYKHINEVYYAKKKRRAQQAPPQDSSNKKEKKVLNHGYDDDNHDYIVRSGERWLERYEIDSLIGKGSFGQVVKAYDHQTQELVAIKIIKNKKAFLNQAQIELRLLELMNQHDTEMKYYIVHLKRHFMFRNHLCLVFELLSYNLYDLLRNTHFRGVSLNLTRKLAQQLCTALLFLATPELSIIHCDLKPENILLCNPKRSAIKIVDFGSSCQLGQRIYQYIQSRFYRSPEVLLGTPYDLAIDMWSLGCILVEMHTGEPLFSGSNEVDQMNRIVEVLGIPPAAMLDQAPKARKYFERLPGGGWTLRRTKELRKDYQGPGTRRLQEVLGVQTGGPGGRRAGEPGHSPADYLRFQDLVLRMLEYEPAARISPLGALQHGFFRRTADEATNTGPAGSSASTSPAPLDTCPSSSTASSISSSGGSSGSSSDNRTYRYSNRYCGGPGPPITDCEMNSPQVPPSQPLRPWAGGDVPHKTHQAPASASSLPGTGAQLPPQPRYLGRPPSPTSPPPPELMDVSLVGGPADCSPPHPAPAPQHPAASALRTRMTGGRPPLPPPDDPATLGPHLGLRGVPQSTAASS
# [19] = target: T18, endogenous kinases and other proteins enriched by Kinobeads from mixed lysates of K-562, COLO-205, MV-4-11, SK-N-BE(2) and OVCAR-8 (Homo sapiens, UniProt Q8TD19); conditions: NEK9
# T18 construct: endogenous in cells
# [20] = target: T19, endogenous kinases and other proteins enriched by Kinobeads from mixed lysates of K-562, COLO-205, MV-4-11, SK-N-BE(2) and OVCAR-8 (Homo sapiens, UniProt P54646); conditions: AMPK-alpha2
# T19 construct: endogenous in cells
# [21] = target: T20, endogenous kinases and other proteins enriched by Kinobeads from mixed lysates of K-562, COLO-205, MV-4-11, SK-N-BE(2) and OVCAR-8 (Homo sapiens, UniProt Q9Y6R4); conditions: MAP3K4
# T20 construct: to maximize the representation of endogenous proteins; endogenous in cells
# T20 sequence (Q9Y6R4 whole entry): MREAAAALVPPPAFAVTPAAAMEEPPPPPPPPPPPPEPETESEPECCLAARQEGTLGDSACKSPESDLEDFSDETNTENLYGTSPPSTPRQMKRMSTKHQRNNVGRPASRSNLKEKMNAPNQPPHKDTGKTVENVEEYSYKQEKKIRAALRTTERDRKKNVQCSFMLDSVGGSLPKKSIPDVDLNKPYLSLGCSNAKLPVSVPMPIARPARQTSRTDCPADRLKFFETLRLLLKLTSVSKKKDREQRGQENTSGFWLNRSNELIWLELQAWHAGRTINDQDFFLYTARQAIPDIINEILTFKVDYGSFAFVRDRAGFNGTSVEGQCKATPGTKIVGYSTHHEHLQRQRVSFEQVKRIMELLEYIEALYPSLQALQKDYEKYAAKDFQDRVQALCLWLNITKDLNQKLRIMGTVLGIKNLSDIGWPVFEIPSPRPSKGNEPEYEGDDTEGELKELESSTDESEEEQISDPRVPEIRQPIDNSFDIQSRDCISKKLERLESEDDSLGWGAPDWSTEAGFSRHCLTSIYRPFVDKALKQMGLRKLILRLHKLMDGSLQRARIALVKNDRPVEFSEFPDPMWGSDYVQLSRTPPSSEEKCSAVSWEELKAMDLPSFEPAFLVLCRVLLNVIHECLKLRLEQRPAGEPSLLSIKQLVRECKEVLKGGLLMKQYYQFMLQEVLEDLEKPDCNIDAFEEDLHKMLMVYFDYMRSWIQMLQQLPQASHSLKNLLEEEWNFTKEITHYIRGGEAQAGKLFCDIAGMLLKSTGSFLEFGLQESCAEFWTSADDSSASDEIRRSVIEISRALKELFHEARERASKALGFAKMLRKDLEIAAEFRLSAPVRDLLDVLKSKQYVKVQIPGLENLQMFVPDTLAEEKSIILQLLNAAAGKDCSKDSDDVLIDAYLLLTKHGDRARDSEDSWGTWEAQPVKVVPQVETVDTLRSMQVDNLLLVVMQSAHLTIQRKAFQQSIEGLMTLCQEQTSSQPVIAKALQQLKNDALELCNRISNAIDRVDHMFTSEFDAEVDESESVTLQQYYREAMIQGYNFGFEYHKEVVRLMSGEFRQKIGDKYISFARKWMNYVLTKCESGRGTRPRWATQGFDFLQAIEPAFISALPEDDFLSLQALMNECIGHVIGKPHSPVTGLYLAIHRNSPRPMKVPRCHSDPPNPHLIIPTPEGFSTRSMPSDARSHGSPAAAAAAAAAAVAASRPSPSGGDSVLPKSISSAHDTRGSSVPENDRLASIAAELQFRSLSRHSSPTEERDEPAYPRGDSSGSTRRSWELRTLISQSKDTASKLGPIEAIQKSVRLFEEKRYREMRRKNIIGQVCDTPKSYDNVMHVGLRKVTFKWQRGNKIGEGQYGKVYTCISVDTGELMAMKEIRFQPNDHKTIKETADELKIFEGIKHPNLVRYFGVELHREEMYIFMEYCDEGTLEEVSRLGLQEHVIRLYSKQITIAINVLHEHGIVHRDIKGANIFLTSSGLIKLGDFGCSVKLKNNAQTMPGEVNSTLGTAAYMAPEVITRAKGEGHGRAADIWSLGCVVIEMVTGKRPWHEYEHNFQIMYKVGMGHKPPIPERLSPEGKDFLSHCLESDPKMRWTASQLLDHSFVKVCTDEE
# [22] = target: T21, endogenous kinases and other proteins enriched by Kinobeads from mixed lysates of K-562, COLO-205, MV-4-11, SK-N-BE(2) and OVCAR-8 (Homo sapiens, UniProt Q9H2G2); conditions: SLK
# T21 construct: endogenous in cells
smiles,measurement,setting,value
C[C@]12O[C@H](C[C@]1(O)CO)n1c3ccccc3c3c4c(c5c6ccccc6n2c5c31)CNC4=O [Lestaurtinib],potency estimated from few doses,[1],622 nM
same,potency estimated from few doses,[2],737 nM
same,number of targets in the Kinobead assay,[3],76
same,potency estimated from few doses,[4],895 nM
same,potency estimated from few doses,[5],810 nM
COc1cc(Nc2ncc3c(C)nc(-c4cc5ccccc5[nH]4)n3n2)cc(OC)c1OC [GW869516X],Kinobeads Data,[6],no target
same,Kinobeads Data,[7],no target
same,Kinobeads Data,[8],no target
same,Kinobeads Data,[9],no target
same,Kinobeads Data,[10],no target
same,Kinobeads Data,[11],no target
same,Kinobeads Data,[12],no target
same,Kinobeads Data,[13],no target
same,Kinobeads Data,[14],no target
same,Kinobeads Data,[15],no target
same,Kinobeads Data,[16],no target
same,Kinobeads Data,[17],no target
same,Kinobeads Data,[18],no target
same,Kinobeads Data,[19],no target
same,Kinobeads Data,[20],no target
same,Kinobeads Data,[21],no target
same,Kinobeads Data,[22],no target
